Data reported in paper PMC11375437, “Selective labelling of GBA2 in cells with fluorescent β-D-arabinofuranosyl cyclitol aziridines” (Chemical Science, 2024).

Target: T1, GBA2 (Homo sapiens, UniProt Q9HCG7)
T1 sequence (Q9HCG7 1-927): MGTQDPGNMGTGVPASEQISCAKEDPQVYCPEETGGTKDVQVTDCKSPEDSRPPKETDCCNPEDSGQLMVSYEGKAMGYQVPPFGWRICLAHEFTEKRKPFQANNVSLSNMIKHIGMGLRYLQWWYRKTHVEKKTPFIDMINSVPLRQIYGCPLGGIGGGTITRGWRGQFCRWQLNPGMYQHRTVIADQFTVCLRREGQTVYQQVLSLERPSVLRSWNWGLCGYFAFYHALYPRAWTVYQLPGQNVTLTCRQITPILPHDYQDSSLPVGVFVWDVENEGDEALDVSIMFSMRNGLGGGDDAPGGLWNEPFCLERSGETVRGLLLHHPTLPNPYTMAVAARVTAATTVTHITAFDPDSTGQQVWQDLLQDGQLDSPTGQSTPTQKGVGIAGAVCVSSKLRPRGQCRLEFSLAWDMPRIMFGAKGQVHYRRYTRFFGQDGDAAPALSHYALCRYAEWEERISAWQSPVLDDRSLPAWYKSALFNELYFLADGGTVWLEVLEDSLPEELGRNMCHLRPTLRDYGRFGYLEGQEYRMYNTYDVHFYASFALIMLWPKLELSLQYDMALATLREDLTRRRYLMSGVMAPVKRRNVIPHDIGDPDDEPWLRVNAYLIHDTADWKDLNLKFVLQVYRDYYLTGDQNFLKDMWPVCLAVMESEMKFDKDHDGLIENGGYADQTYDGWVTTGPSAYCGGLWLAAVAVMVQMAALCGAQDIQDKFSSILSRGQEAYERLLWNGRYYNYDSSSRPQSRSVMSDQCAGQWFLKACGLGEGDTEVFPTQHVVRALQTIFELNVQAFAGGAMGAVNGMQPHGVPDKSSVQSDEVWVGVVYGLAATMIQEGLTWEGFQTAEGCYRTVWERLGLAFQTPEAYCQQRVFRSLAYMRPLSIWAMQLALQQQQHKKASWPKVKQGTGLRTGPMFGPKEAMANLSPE
Assay: In situ labelling of wild-type HEK293T cells, GBA2
Format: cell-based
Design: endogenous in cells; host or cells: wild-type HEK293T
Details: wild-type HEK293T intact cells; 24 h incubation
Description: Importantly, the GBA2 selectivity of β-D-Araf ABPs 3–5 was maintained during in situ labelling of wild-type HEK293T cells (ESI Fig. S9 ^†). […] Even after 24 h incubation, similar results were obtained: ABP 4 selectively labelled GBA2 at 10 nM, with only slight concomitant GBA1 labelling at concentrations higher than 100 nM (ESI Fig. S10 ^†). Selective GBA2 labelling by ABP 3 and 4 finally was also observed in human retinal pigment epithelial-1 cells (Fig. 5C).
Figure S9. Fluorescent gel images of in situ labelling of wild-type HEK293T cells by β-D-Araf aziridine ABPs 3-5.
β-D-Araf ABPs were firstly incubated with intact wild-type HEK293T cells for 1 or 2.5 h (1st incubation) and then cells were harvested. […]
2.12 Reactivity of β-D-Araf aziridines towards GBA2 orthologue in other species β-D-Araf aziridine ABP 3-5 or ABP 7 was incubated with homogenates of zebrafish (Danio rerio) larvae or mice brain for 1 h at 37 °C. […] The zebrafish homogenates were passed through a desalting column (in the same way as described for the irreversibility evaluation above) to remove interference from biological pigments when scanning at λEX 473 nm and λEM ≥ 510 nm for BODIPY green fluorescence. […]

## COc1ccc(C2=[N+]3C(=C(CCCCc4cn(CCCCCCCCN5[C@@H]6[C@H](CO)[C@@H](O)[C@H](O)[C@@H]65)nn4)c4ccc(-c5ccc(OC)cc5)n4[B-]3(F)F)C=C2)cc1 (stereo partly shown) [ABP 4]
  Concentration at which GBA2 is selectively labelled in situ: 10 nM
